The values below come from patent US5698556A, “Methotrexate analogs and methods of using same” (priority 1995, dated 1997).

Like-named read-outs stand apart in the source and are kept apart here.

For series [1] the following is noted: compared with MTX; cited from earlier work.
The target of a further series is T1, Chicken Liver DHFR (Gallus gallus, UniProt P00378).
T1 construct: purchased Sigma Chemical Co. (St. Louis, Mo.); host or cells: chicken liver
T1 sequence (P00378 1-189): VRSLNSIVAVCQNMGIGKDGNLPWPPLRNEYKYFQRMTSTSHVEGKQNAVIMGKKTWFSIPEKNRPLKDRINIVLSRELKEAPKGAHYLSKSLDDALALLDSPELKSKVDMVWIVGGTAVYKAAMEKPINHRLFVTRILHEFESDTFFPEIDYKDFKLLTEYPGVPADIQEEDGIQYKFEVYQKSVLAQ
As to the kind of experiment: Inhibition of DHFR, spectrophotometric assay (chicken liver DHFR). Particulars: for IC50: chicken liver DHFR, pH 7.0, read-out: ID50 (drug concentration which inhibits enzyme activity by 50%). In kind it is biochemical. As for the experimental part:
(§1) Tests were conducted to determine the ID50 value for methotrexate analogs of the present invention. The ID50 value is the drug concentration which inhibits enzyme activity by 50%. […] DHFR activity was measured as the decrease over time in absorbance at 340 nm.
(§2) DHFR was diluted prior to each experiment in 50 mM potassium phosphate buffer (pH 7.0) containing 0.1 mM NADPH and 0.1% BSA.
(§3) Inhibition studies were carried out by adding to a 1.0 ml cuvette the assay solution containing all components except dihydrofolate, and then incubating the solution for 2 minutes at room temperature. The absorbance of the solution at 340 nm was recorded immediately following the addition of dihydrofolate. The mixtures were then incubated at room temperature for 5 minutes, and the absorbance at 340 nm was again recorded. […] ID50 values were determined by interpolation from graphs of percent of inhibition plotted against drug concentration.

The next series has as its system K562 cells. As to the kind of experiment: Growth inhibition of human leukemia cells (K562). In kind it is cell-based. Particulars: for IC50: Homo sapiens; for times more compound as compared with MTX required to inhibit cell growth by 50%: relative to MTX.
The next series concerns CCRF/CEM Cells. Description: Growth inhibition of human leukemia cells (CCRF/CEM). The class given is cell-based. Particulars: 120 hours continuous exposure. On the procedure:
Two suspensions of human leukemia cell lines were employed in this study. […] Cells were maintained at 37° C. with 5% CO2 in air, and were cultured using standard sterile tissue culture techniques.
Prior to toxicity studies, cells were maintained 48 hours in the absence of added inhibitor. […] Inhibitor concentrations ranging from 10^-12 to 10^-4 M were added to the cultures except for a control culture, which contained no added drug. Cell counts were performed by hematometer counting during 120 hours of continuous exposure to the drugs. The IC50 value was obtained by interpolation from graphs of percent growth inhibition plotted against drug concentration.

A further series concerns the target T2, L. casei DHFR (Lacticaseibacillus casei, UniProt P00381).
T2 construct: purchased New England Enzyme Center (Boston, Mass.); host or cells: MTX-resistant L. casei
As to the kind of experiment: Inhibition of DHFR, spectrophotometric assay (L. casei DHFR). The class given is biochemical. To be noted: pH 7.0, read-out: ID50 (drug concentration which inhibits enzyme activity by 50%). As for the experimental part:
as §1, §2, §3

A short description of series [2]: Metabolism in rabbit liver homogenate (formation of 7-OH-MTX). The class given is in vitro ADME, New Zealand white rabbit. To be noted: pH 7.6. As for the experimental part:
For these experiments, freshly isolated liver from a New Zealand white rabbit was homogenized in 400 ml of cold buffer of pH 7.6 consisting of 10 mM Tris-HCl, 25 mM sucrose and 10 mM MgCl2. The homogenate was centrifuged at 1000×g for 20 minutes at 4° C., and the resulting pellet was resuspended in about 14 ml of the same buffer. […] Two ml samples of the homogenate were removed at 10 minute intervals. Samples were boiled S minutes to denature the proteins, and then centrifuged to pelletize cell debris. To determine inhibitor and 7-OH-MTX levels, 100 μl of the supernatant was analyzed by HPLC. For HPLC analysis, a Perkin-Elmer 410 LC solvent delivery system and a 5-μm IBM ODS column (4.1×250 mm) with a Guard column were employed. The mobile phase consisted of 0.1M monobasic sodium phosphate and 0.1M Tris-HCl in methanol at a final pH of 7.6. […] Detector output was recorded and integrated by a Perkin-Elmer LCI 100 integrator.

For series [3] the following is noted: cited from earlier work.
Setting [4] is: K562 cells, 120 hours continuous exposure, read-out: IC50.

T2 sequence (P00381 whole entry): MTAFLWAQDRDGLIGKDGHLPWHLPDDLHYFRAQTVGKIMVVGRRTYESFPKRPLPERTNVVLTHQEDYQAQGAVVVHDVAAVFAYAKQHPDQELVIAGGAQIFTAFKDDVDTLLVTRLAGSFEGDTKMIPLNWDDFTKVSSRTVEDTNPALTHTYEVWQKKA
Experimental for K562 cells: The IC50 value is the drug concentration which inhibits cancer cell growth by 50%.
Two suspensions of human leukemia cell lines were employed in this study. The myelogenous leukemia cell line K562 was cultured in RPMI 1640 (JRH Biosciences) containing 10% filtered fetal bovine serum (FBS; Irvine Scientific), and the lymphoblastic leukemia cell line CCRF/CEM was cultured in RPMI 1640 containing 20% FBS, 100 U/ml penicillin (GIBCO Laboratories, Grand Island, N.Y.), and 100 μg/ml streptomycin (GIBCO). Cells were maintained at 37° C. with 5% CO2 in air, and were cultured using standard sterile tissue culture techniques.
Prior to toxicity studies, cells were maintained 48 hours in the absence of added inhibitor. Logarithmically growing cells were inoculated at 1×10^4 cells/ml in tissue culture grade Petri dishes (35×10 mm), and, following a suitable recovery period, were treated with chemical agents. Inhibitor concentrations ranging from 10^-12 to 10^-4 M were added to the cultures except for a control culture, which contained no added drug. Cell counts were performed by hematometer counting during 120 hours of continuous exposure to the drugs. The IC50 value was obtained by interpolation from graphs of percent growth inhibition plotted against drug concentration.

Consider `CN(Cc1cnc2nc(N)nc(N)c2n1)c1c(F)cc(C(=O)N[C@@H](CCC(=O)O)C(=O)O)cc1F` [3',5'-difluoroMTX], for which the “antifolate antagonism / biological activity, in words” value in series [1] is reported as “little or no increase in biological activity as compared with MTX”.
For the compound `CNc1nc2nc(N)nc(N)c2nc1CN(C)c1ccc(C(=O)N[C@@H](CCC(=O)O)C(=O)O)cc1` [7-CH3 NH-MTX, 4-amino-7-methylamino-N-10-methylpteroylglutamic acid], the IC50 was found to be 0.3 µM at Chicken Liver DHFR, 0.3 µM in the series with K562 cells (setting [4]), 0.3 µM in the series on CCRF/CEM Cells and 0.2 µM at L. casei DHFR. In the series on K562 cells (K562 and CCRF/CEM cells), the “times more compound as compared with MTX required to inhibit cell growth by 50%” value was 25-40 times.
For the compound `CN(Cc1nc2c(N)nc(N)nc2nc1Cl)c1ccc(C(=O)N[C@@H](CCC(=O)O)C(=O)O)cc1` [7-Cl-MTX], the IC50 is 20 µM on Chicken Liver DHFR, 10 µM with K562 cells (setting [4]), 10 µM in the series with CCRF/CEM Cells and 50 µM on L. casei DHFR.
In the case of `CN(Cc1nc2c(N)nc(N)nc2nc1F)c1ccc(C(=O)N[C@@H](CCC(=O)O)C(=O)O)cc1` [7-F-MTX], the IC50 is 1.5 µM at Chicken Liver DHFR, 0.85 µM in the series with K562 cells (setting [4]), 5 µM in the series with CCRF/CEM Cells and 0.5 µM on L. casei DHFR.
The matching figures for `CN(Cc1nc2c(N)nc(N)nc2nc1N=[N+]=[N-])c1ccc(C(=O)N[C@@H](CCC(=O)O)C(=O)O)cc1` [7-N3 -MTX]: 0.4 µM, 1 µM, 2 µM and 0.2 µM.
Regarding `CN(Cc1nc2c(N)nc(N)nc2nc1N)c1ccc(C(=O)N[C@@H](CCC(=O)O)C(=O)O)cc1` [7-NH2 -MTX, 4,7-diamino-N-10-methylpteroylglutamic acid], the IC50 at Chicken Liver DHFR was determined as 0.14 µM; in the series with K562 cells (setting [4]) it was 0.05 µM; in the series on CCRF/CEM Cells, 0.076 µM; at L. casei DHFR it was 0.168 µM. In addition, the “effectiveness as DHFR inhibitor, in words” value at Chicken Liver DHFR (chicken liver and L. casei DHFR) was “still relatively effective as a DHFR inhibitor”. In series [2], the “metabolism to 7-OH-MTX, in words” value was “not even a slight metabolism of 7-NH2 -MTX to 7-OH-MTX could be detected over an hour”. Moreover, the “ability to inhibit growth of leukemia cell lines, in words” value in the series with K562 cells (K562 and CCRF/CEM cells) was “still effective at inhibiting the growth of the leukemia cell lines”. The “times more compound as compared with MTX required to inhibit cell growth by 50%” value with K562 cells (K562 and CCRF/CEM cells) is recorded as 6-7 times.
`CC(C)Nc1nc2nc(N)nc(N)c2nc1CN(C)c1ccc(C(=O)N[C@@H](CCC(=O)O)C(=O)O)cc1` [7-NHCH(CH3)2 -MTX]: the IC50 on Chicken Liver DHFR stood at 0.5 µM; with K562 cells (setting [4]), 0.5 µM; in the series on CCRF/CEM Cells, 5 µM; on L. casei DHFR, 0.75 µM.
As for `CCOc1nc2nc(N)nc(N)c2nc1CN(C)c1ccc(C(=O)N[C@@H](CCC(=O)O)C(=O)O)cc1` [7-OC2 H5 -MTX], the IC50 turned out to be 2 µM at Chicken Liver DHFR, 0.85 µM in the series with K562 cells (setting [4]), 4 µM in the series with CCRF/CEM Cells and 1.2 µM on L. casei DHFR.
The matching figures for `COc1nc2nc(N)nc(N)c2nc1CN(C)c1ccc(C(=O)N[C@@H](CCC(=O)O)C(=O)O)cc1` [7-OCH3 -MTX]: 0.75 µM, 0.45 µM, 4.5 µM and 1 µM.
The matching figures for `CC(C)Oc1nc2nc(N)nc(N)c2nc1CN(C)c1ccc(C(=O)N[C@@H](CCC(=O)O)C(=O)O)cc1` [7-OCH(CH3)2 -MTX]: 0.2 µM, 1 µM, 6 µM and 0.67 µM.
Regarding `CN(Cc1nc2c(N)nc(N)nc2nc1P(=O)(O)O)c1ccc(C(=O)N[C@@H](CCC(=O)O)C(=O)O)cc1` [7-P(O)(OH)2 -MTX], the IC50 at Chicken Liver DHFR is 10 µM; in the series with K562 cells (setting [4]) it was 6 µM; on L. casei DHFR, 15 µM.
`Cc1nc2nc(N)nc(N)c2nc1CN(C)c1ccc(C(=O)N[C@@H](CCC(=O)O)C(=O)O)cc1` [7-methyl substituted MTX]: the “antifolate antagonism / biological activity, in words” value in series [1] is “impaired antifolate antagonism”.
The term share remaining denotes what is left of the initial amount, in per cent. A higher share remaining goes with greater stability. In the case of `CN(Cc1cnc2nc(N)nc(N)c2n1)c1ccc(C(=O)N[C@@H](CCC(=O)O)C(=O)O)cc1` [MTX], the “renal and hepatic toxicity, in words” value in series [3] (high dose regimen) is “associated with renal and hepatic toxicity”. Also, in series [3] (man and monkeys), the “conversion in vivo, in words” value is recorded as “converted in vivo to 7-hydroxymethotrexate (7-OH-MTX)”. The “metabolism to 7-OH-MTX, in words” value in series [2] (over an hour, 37° C.) was “substantially metabolized to 7-OH-MTX within an hour”. For the same compound, in series [2] (rabbit, liver homogenate), the metabolised at 10 min was approximately 50% and the fraction remaining at 1 h was less than 25%. In addition, in the series on K562 cells (K562, 120 h), the IC50 was determined as 0.008 µM. For the same compound, in the series with CCRF/CEM Cells, the IC50 came to 0.011 µM.
